Values after ≈ are worked out from the molar mass of the structure shown. “Also recorded” adds a separate entry of the source.
How the values were obtained:
[1] = system: Serratia marcescens IAM 1184; assay: MIC; assay type: cell-based; settings: IAM1184, gram negative
Method: (§1) In accordance with the method as disclosed in Chemotherapy, Vol. 29, pages 76-79 (1981), MIC (μg/ml) of each test compound was measured.

[2] = system: Salmonella paratyphi 1015; assay: MIC; assay type: cell-based; settings: Salmonella enterica
Method: as §1

[3] = system: Escherichia coli NIHJ JC-2; assay: MIC; assay type: cell-based; settings: NIHJJC2, gram negative
Method: as §1

[4] = system: Klebsiella pneumoniae PCI-602; assay: MIC; assay type: cell-based; settings: PCI602, gram negative
Method: as §1

[5] = system: Staphylococcus epidermidis; assay: MIC; assay type: cell-based; settings: gram positive
Method: as §1

[6] = system: Bacillus subtilis ATCC 6633; assay: MIC; assay type: cell-based; settings: ATCC6633, gram positive
Method: as §1

[7] = system: Staphylococcus aureus FDA 209P JC-1; assay: MIC; assay type: cell-based; settings: FDA209P, gram positive
Method: as §1

[8] = system: Proteus Vulgaris HX-19; assay: MIC; assay type: cell-based; settings: gram negative
Method: as §1

[9] = system: Pseudomonas aeruginosa IFO 3445; assay: MIC; assay type: cell-based; settings: IFO3445, gram negative, read-out: MIC
Method: as §1

[10] = system: Microorganisms; assay: In vitro anti-microbial activity (MIC), overall; assay type: cell-based; settings: Experiment 1
Method: as §1

[11] = Bioavailability in oral administration in mice; assay type: in vivo, ddY-strain male mice; settings: mice; for concentration at 0.5 h / concentration at 1 h / concentration at 2 h / concentration at 4 h / AUC at 4 h: mouse, serum, oral 50 mg/kg; for concentration at 0.5 h: after 30 min.; for concentration at 0.5 h / concentration at 1 h / concentration at 2 h / concentration at 4 h: read-out: Concentration in serum; for concentration at 1 h: after 60 min.; for concentration at 2 h: after 120 min.; for concentration at 4 h: after 240 min.; for AUC at 4 h: 1-4 hrs., read-out: AUC
Method: Each of the test compounds was suspended in a 0.5% sodium carboxymethylcellulose to prepare a suspension having a concentration of 5 mg/ml of the compound.
ddY-strain male mice (5 week old, weighing 22 to 25 g, three per group) were used. The suspension was orally administered to mice fasted for 16 hours. The dose of the test compound was adjusted to 50 mg/kg of body weight of animal. 30, 60, 120, and 240 minutes after the administration of the test compound, blood was taken out from each mouse, and the blood sample thus obtained was centrifuged at 3,000 rpm for 20 minutes to obtain a serum sample.

[12] = in vivo; settings: mouse, in vivo, po
Method: (§2) The acute toxicities in oral administration and intravenous injection of the test compounds were tested as follows:
In oral administration: To ddY-strain male mice (weighing 20-25 g, five per group) was administered orally a suspension of each test compound in a 0.5% sodium carboxymethylcellulose. […] J. Biometric Soc., 8, 249 (1959)].

[13] = Bioavailability in oral administration in rats; assay type: in vivo, Wistar-strain male rats; design: AUC at 4 h: concentration or dose not given beside the values; settings: rat, plasma, rats, oral; for concentration at 0.5 h: after 30 min.; for concentration at 0.5 h / concentration at 1 h / concentration at 2 h / concentration at 4 h: read-out: Concentration in plasma; for concentration at 1 h: after 60 min.; for concentration at 2 h: after 120 min.; for concentration at 4 h: after 240 min.; for AUC at 4 h: 1-4 hrs., read-out: AUC
Method: Each of the test compounds was suspended in a 0.5% sodium carboxymethylcellulose to prepare a suspension having a concentration of 5 mg/ml of the test compound.
Wistar-strain male rats (weighing 160 g ±20 g, three per group) were used. The suspension was orally administered to rats fasted 16 hours. 30, 60, 120, and 240 minutes after the administration of the test compound, blood was taken out from the rats. The blood was centrifuged at 3,000 rpm for 20 minutes to obtain a plasma sample. In the same manner as described in Experiment 2, the concentration (μg/ml) of test compound in plasma and also AUC (μg.hr/ml) were measured.

[14] = system: ddY-strain male mice; assay: in vivo; assay type: in vivo; settings: 10080 min
Method: as §2
In intravenous administration: Each of the test compounds was dissolved in 1N aqueous sodium hydroxide solution and thereto was added a phosphoric acid-saline buffer (pH 7.2) to prepare a test solution. The test solution was intravenously injected to ddy-strain male mice (weighing 20-25 g, five per group). One week after the administration of the test solution, the LD50 was determined in accordance with Weil method.

SMILES	MIC [1] [µg/mL]	MIC [2] [µg/mL]	MIC [3] [µg/mL]	MIC [4] [µg/mL]	MIC [5] [µg/mL]	MIC [6] [µg/mL]	MIC [7] [µg/mL]	MIC [8] [µg/mL]	MIC [9] [µg/mL]	concentration at 0.5 h [11] [ng/mL]	concentration at 1 h [11] [ng/mL]	concentration at 2 h [11] [ng/mL]	concentration at 4 h [11] [ng/mL]	AUC at 4 h [11] [ng·h/mL]	concentration at 0.5 h [13] [µg/mL]	concentration at 1 h [13] [µg/mL]	concentration at 2 h [13] [µg/mL]	concentration at 4 h [13] [ng/mL]	AUC at 4 h [13] [µg·h/mL]	further results
CCn1cc(C(=O)O)c(=O)c2cnc(-n3ccnc3)cc21 [E, 1-ethyl-1,4-dihydro-7-(1-imidazolyl)-4-oxo-1,6-naphthylidine-3-carboxylic acid]	100 (≈ 352 µM)	12.5 (≈ 44 µM)	> 100	25 (≈ 87.9 µM)	> 100	100 (≈ 352 µM)	> 100	3.12 (≈ 11 µM)	> 100											anti-microbial activities in vitro (MIC), in words [10]: less antimicrobial activities; also recorded: far less activities
CC1COc2c(-n3ccnc3)c(F)cc3c(=O)c(C(=O)O)cn1c23 (stereo not shown) [F, 2,3-dihydro-9-fluoro-10-(1-imidazolyl)-3-methyl-7-oxo-7H-pyrido[1,2,3-de][1,4]benzoxazine-6-carboxylic acid]	3.12 (≈ 9.48 µM)	0.05 (≈ 0.152 µM)	0.39 (≈ 1.18 µM)	0.05 (≈ 0.152 µM)	1.56 (≈ 4.74 µM)	0.1 (≈ 0.304 µM)	0.19 (≈ 0.577 µM)	0.025 (≈ 0.0759 µM)	3.12 (≈ 9.48 µM)	6400 ± 1800	2600 ± 1000	1200 ± 300	600 ± 200	7500						bioavailability when administered orally, in words ([11]; oral, Experiment 2): inferior to the compounds of the present invention in the bioavailability
CCn1cc(C(=O)O)c(=O)c2cc(F)c(-n3ccnc3)c(F)c21 [I-a, 1-Ethyl-6,8-difluoro-1,4-dihydro-7-(1-imidazolyl)-4-oxoquinoline-3-carboxylic acid]	1.56 (≈ 4.89 µM)	0.05 (≈ 0.157 µM)	0.2 (≈ 0.626 µM)	0.05 (≈ 0.157 µM)	3.13 (≈ 9.8 µM)	0.1 (≈ 0.313 µM)	0.39 (≈ 1.22 µM)	0.025 (≈ 0.0783 µM)	6.25 (≈ 19.6 µM)	44800 ± 8900	39300 ± 5200	7600 ± 1700	1700 ± 500	64900	54.9 ± 3.9	70.8 ± 3.1	48 ± 4.3	31300 ± 3600	184	LD50 at 168 h ([12]; mice, one week, Weil method): > 4000 mg/kg; LD50 ([14]; mice, i.v., one week, Weil method): 773 mg/kg
CCn1cc(C(=O)O)c(=O)c2cc(F)c(-n3cnc(C)c3)c(F)c21 [I-b, 1-Ethyl-6,8-difluoro-1,4-dihydro-7-[1-(4-methylimidazolyl)]-4-oxoquinoline-3-carboxylic acid]	3.13 (≈ 9.39 µM)	0.1 (≈ 0.3 µM)	0.39 (≈ 1.17 µM)	0.1 (≈ 0.3 µM)	3.13 (≈ 9.39 µM)	0.05 (≈ 0.15 µM)	0.78 (≈ 2.34 µM)	0.025 (≈ 0.075 µM)	6.25 (≈ 18.8 µM)	49200 ± 2500	29400 ± 2500	10000 ± 800	6300 ± 1100	67900	58.7 ± 5.3	62.9 ± 6	52 ± 4	33500 ± 4900	188	LD50 at 168 h [12]: > 4000 mg/kg; LD50 ([14]; mouse, in vivo, iv): 593 mg/kg

— patent publication US4530930A, “Antimicrobial 1-ethyl-6,8-difluoro-1,4-dihydro-7-(1-imidazolyl)-4-oxoquinoline-3-carbo xylic acid derivatives” (Kanebo, Ltd., priority 1982, dated 1985)
